The record followed here is patent publication US20210198259A1, “HETEROCYCLIC DERIVATIVES AND USE THEREOF” (C&C RESEARCH LABORATORIES, priority 2018, published 2021).

Structures can show the parent of a compound that is named as a salt.

T1 sequence (Q9H3N8 whole entry): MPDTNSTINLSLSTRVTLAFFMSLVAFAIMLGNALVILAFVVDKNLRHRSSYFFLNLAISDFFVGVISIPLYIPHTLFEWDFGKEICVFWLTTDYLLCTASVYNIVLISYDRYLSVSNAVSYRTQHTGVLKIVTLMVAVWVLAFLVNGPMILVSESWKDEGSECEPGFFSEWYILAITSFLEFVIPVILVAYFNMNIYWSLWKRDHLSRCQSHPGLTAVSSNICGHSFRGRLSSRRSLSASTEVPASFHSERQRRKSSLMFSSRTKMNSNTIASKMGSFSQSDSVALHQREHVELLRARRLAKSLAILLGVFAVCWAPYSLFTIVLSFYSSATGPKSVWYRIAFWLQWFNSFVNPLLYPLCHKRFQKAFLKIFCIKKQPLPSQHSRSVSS

The first data set concerns the target T1, human histamine 4 receptor (hH4R) (Homo sapiens, UniProt Q9H3N8).
T1 construct: purchased Multispan
The experiment in a line: Binding affinity of human histamine 4 receptor (hH4R), [3H] histamine displacement. Conditions: [3H] labeled histamine, hH4R-overexpressed cell membrane. On the procedure:
The compounds prepared in the above Examples, the compound of Example 55 of International Publication No. WO 2010/030785 and the compound of Example 4 of International Publication No. WO 2013/048214 were diluted by 1,000 fold (v/w) with DMSO, and then 1 mL of the diluted compound solution was mixed with 99 mL of the analysis buffer solution (50 mM tris-HCl pH 7.4, 5 mM EDTA) to obtain concentration of 1 μM. […] of the prepared compound solution was transferred to each well of a 96-well plate, and then 20 mL of 100 μM histamine diluted with analysis buffer solution and 1% DMSO were transferred to each well to calculate non-specific binding and total binding degree. 15 μg of human histamine 4 receptor-overexpressed cell membrane (Multispan) was diluted into […] of analysis buffer solution and that was transferred to each well. [^3H] labeled histamine (PerkinElmer) was diluted into 10 nM concentration, 20 mL was allocated in each well, and then it was kept in a 27° C. incubator for 30 minutes. After the reaction, 100 mL of the mixture was transferred to a glass fiber plate in which 0.5% polyethylene amine was pre-soaked, and then non-binding [^3H] labeled histamine was removed in vacuum. After 6 times washing with 200 mL of washing buffer solution (50 mM tris-HCl, pH 7.4), the plate was dried in a 37° C. oven for 18 hours. […] of betaScint cocktail solution was added to each well, and after 10 minutes CPM (count per minute) value of [^3H] labeled histamine was measured by the use of Micro beta2™. The binding affinity (% inhibition) of the human histamine 4 receptor for the compounds of the present invention was analyzed by an Excel program, and the results of analysis are represented in Table 1.
For orientation: inhibition means the change of the read-out against control, counted positive when it falls. For the molecule `CN1CCN(C2=Nc3ncc(Br)cc3N3CC(=O)N=C23)CC1` [Example 1, 8-bromo-4-(4-methylpiperazin-1-yl)imidazo[1,2-a]pyrido[2,3-e]pyrazin-2(1H)-one], the inhibition at 1 µM amounted to 79.7%.

For the molecule `CNC1CN(C2=Nc3ncc(Br)cc3N3CC(=O)N=C23)C1` [Example 2, 8-bromo-4-(3-(methylamino)azetidin-1-yl)imidazo[1,2-a]pyrido[2,3-e]pyrazin-2(1H)-one], the inhibition at 1 µM was found to be 39.5%.

For `CN[C@@H]1CCN(C2=Nc3ncc(Br)cc3N3CC(=O)N=C23)C1` [Example 3, (R)-8-bromo-4-(3-(methylamino)pyrrolidin-1-yl)imidazo[1,2-a]pyrido[2,3-e]pyrazin-2(1H)-one], the inhibition at 1 µM is 9.8%.

Turning to `CN[C@H]1CCN(C2=Nc3ncc(Br)cc3N3CC(=O)N=C23)C1` [Example 4, (S)-8-bromo-4-(3-(methylamino)pyrrolidin-1-yl)imidazo[1.2-a]pyrido[2.3-e]pyrazin-2(1H)-one], the inhibition at 1 µM was -4.38%.

In the case of `O=C1CN2C(=N1)C(N1CCN3CCCC3C1)=Nc1ncc(Br)cc12` (stereo not drawn) [Example 5, 8-bromo-4-(hexahydropyrrolo[1,2-a]pyrazin-2(1H)-yl)imidazo[1,2-a]pyrido[2,3-e]pyrazin-2(1H)-one], the inhibition at 1 µM was 55.9%.

With `CN1CCN(c2nc3ncc(Br)cc3n3c(=O)[nH]nc23)CC1` [Example 6, 8-bromo-4-(4-methylpiperazin-1-yl)pyrido[2,3-e][1,2,4] triazolo[4,3-a]pyrazin-1(2H)-one], the inhibition at 1 µM stood at 42.6%.

On to `CN1CCN(c2nc3ncc(Br)cc3n3[nH]c(=O)nc23)CC1` [Example 7, 8-bromo-4-(4-methylpiperazin-1-yl)pyrido[2,3-e][1,2,4] triazolo[1,5-a]pyrazin-2(1H)-one], for which the inhibition at 1 µM was -1.12%.

Take `CN1CCN(C2=Nc3nc(Cl)c(Br)cc3N3CC(=O)N=C23)CC1` [Example 8, 8-bromo-7-chloro-4-(4-methylpiperazin-1-yl)imidazo[1,2-a]pyrido[2,3-e]pyrazin-2(1H)-one]: the inhibition at 1 µM came out at 88.9%.

In the case of `CN1CCN(C2=Nc3nc(F)c(Br)cc3N3CC(=O)N=C23)CC1` [Example 9, 8-bromo-7-fluoro-4-(4-methylpiperazin-1-yl)imidazo[1.2-a]pyrido[2,3-e]pyrazin-2(1H)-one], the inhibition at 1 µM turned out to be 94.4%.

Take `CN1CCN(C2=Nc3ccc([N+](=O)[O-])cc3N3CC(=O)N=C23)CC1` [Example 10, 4-(4-methylpiperazin-1-yl)-8-nitroimidazo[1,2-a]quinoxalin-2(1H)-one]: the inhibition at 1 µM worked out at 98.1%.

For the molecule `CN1CCN(C2=Nc3ccc(N)cc3N3CC(=O)N=C23)CC1` [Example 11, 8-amino-4-(4-methylpiperazin-1-yl)imidazo[1,2-a]quinoxalin-2(1H)-one], the inhibition at 1 µM is 44.8%.

For the molecule `CN1CCN(C2=Nc3ccc(Br)cc3N3CC(=O)NN=C23)CC1` [Example 14, 9-bromo-5-(4-methylpiperazin-1-yl)-1H -[1,2,4]triazino[43-a]quinoxalin-2(3H)-one], the inhibition at 1 µM was 52.6%.

Turning to `CN1CCN(C2=Nc3ccc(Br)c(Br)c3N3CC(=O)N=C23)CC1` [Example 15, 8,9-dibromo-4-(4-methylpiperazin-1-yl)imidazo[1,2-a]quinoxalin-2(1H)-one], the inhibition at 1 µM stood at 99.2%.

Regarding `CNC1CN(C2=Nc3ccc(NS(C)(=O)=O)cc3N3CC(=O)N=C23)C1` [Example 16, N-(4-(3-(methylamino)azetidin-1-yl)-2-oxo-1,2-dihydroimidazo[1,2-a]quinoxalin-8-yl)methanesulfonamide], the inhibition at 1 µM is -5.98%.

With `CN1CCN(C2=Nc3ncc(Cl)cc3N3CC(=O)N=C23)CC1` [Example 17, 8-chloro-4-(4-methylpiperazin-1-yl)imidazo[1,2-a]pyrido[2,3-e]pyrazin-2(1H)-one], the inhibition at 1 µM came to 87.1%.

For `CNC1CN(C2=Nc3ccc(N)cc3N3CC(=O)N=C23)C1` [Example 18, 8-amino-4-(3-(methylamino)azetidin-1-yl)imidazo[1,2-a]quinoxalin-2(1H)-one], the inhibition at 1 µM came to 34.1%.

For the molecule `CNC1CN(C2=Nc3ccc(Cl)cc3N3CC(=O)N=C23)C1` [Example 19, 8-chloro-4-(3-(methylamino)azetidin-1-yl)imidazo[1,2-a]quinoxalin-2(1H)-one], the inhibition at 1 µM stood at 96%.

`CNC1CN(C2=Nc3ncc(Cl)cc3N3CC(=O)N=C23)C1` [Example 20, 8-chloro-4-(3-(methylamino)azetidin-1-yl)imidazo[1,2-a]pyrido[2,3-e]pyrazin-2(1H)-one]: the inhibition at 1 µM is 20.5%.

As for `CNC1CN(C2=Nc3ccc(Br)cc3N3CC(=O)N=C23)C1` [Example 21, 8-bromo-4-(3-(methylamino)azetidin-1-yl)imidazo[1,2-a]quinoxalin-2(1H)-one hydrochloride], the inhibition at 1 µM was 95.9%.

`CN1CCN(C2=Nc3cc(Cl)ncc3N3CC(=O)N=C23)CC1` [Example 22, 3-chloro-6-(4-methylpiperazin-1-yl)imidazo[1,2-a]pyrido[4,3-e]pyrazin-8(9H)-one]: the inhibition at 1 µM turned out to be 86.3%.

For `CNC1CN(C2=Nc3cnc(Cl)cc3N3CC(=O)N=C23)C1` [Example 23, 8-chloro-4-(3-(methylamino)azetidin-1-yl)imidazo[1.2-a]pyrido[3.4-e]pyrazin-2(1H)-one hydrochloride], the inhibition at 1 µM was 89.4%.

Take `CNC1CN(C2=Nc3cnc(Cl)cc3N3CC(=O)N=C23)C1` [Example 24, 8-chloro-4-(3-(methylamino)azetidin-1-yl)imidazo[1,2-a]pyrido[3,4-e]pyrazin-2(1H)-one]: the “Human histamine 4 receptor (hH4R) binding affinity (% inhibition at 1 μM)” value is reported as 91.9%.

As to `CN1CCN(C2=Nc3cnc(Br)cc3N3CC(=O)N=C23)CC1` [Example 25, 8-bromo-4-(4-methylpiperazin-1-yl)imidazo[1,2-a]pyrido[3,4-e]pyrazin-2(1H)-one], the inhibition at 1 µM was 96.9%.

In the case of `CNC1CN(C2=Nc3cnc(Br)cc3N3CC(=O)N=C23)C1` [Example 26, 8-bromo-4-(3-(methylamino)azetidin-1-yl)imidazo[1,2-a]pyrido[3,4-e]pyrazin-2(1H)-one], the inhibition at 1 µM came out at 93.4%.

As for `CN1CCN(C2=Nc3ncc(Br)cc3N3CS(=O)(=O)N=C23)CC1` [Example 27, 8-bromo-4-(4-methylpiperazin-1-yl)-1H-pyrido[2,3-e][1,2,4]thiadiazolo[4,3-a]pyrazin 2,2-dioxide], the inhibition at 1 µM stood at 22.6%.

In the case of `CN1CCN(C2=Nc3cnc(Cl)cc3N3CC(=O)N=C23)CC1` [Example 28, 8-chloro-4-(4-methylpiperazin-1-yl)imidazo[1,2-a]pyrido[3,4-e]pyrazin-2(1H)-one hydrochloride], the inhibition at 1 µM was found to be 96.8%.

With `CN1CCN(C2=Nc3ccc(Cl)nc3N3CC(=O)N=C23)CC1` [Example 29, 2-chloro-6-(4-methylpiperazin-1-yl)imidazo[1,2-a]pyrido[3,2-e]pyrazin-8(9H)-one], the inhibition at 1 µM was found to be 97.3%.

As for `CN1CCN(C2=Nc3ccc(Br)nc3N3CC(=O)N=C23)CC1` [Example 30, 2-bromo-6-(4-methylpiperazin-1-yl)imidazo[1,2-a]pyrido[3,2-e]pyrazin-8(9H)-one], the inhibition at 1 µM came out at 93.2%.

For the molecule `CNC1CN(C2=Nc3ccc(Cl)nc3N3CC(=O)N=C23)C1` [Example 31, 2-chloro-6-(3-(methylamino)azetidin-1-yl)imidazo[1,2-a]pyrido[3,2-e]pyrazin-8(9H)-one], the inhibition at 1 µM stood at 97.7%.

In the case of `CNC1CN(C2=Nc3ccc(Br)nc3N3CC(=O)N=C23)C1` [Example 32, 2-bromo-6-(3-(methylamino)azetidin-1-yl)imidazo[1,2-a]pyrido[3,2-e]pyrazin-8(9H)-one], the inhibition at 1 µM stood at 97.4%.

Tested on in another data set: not listed separately
Briefly: Test for pharmacokinetics in ICR mice (oral). The format is in vivo. Conditions: 50 mg/kg, ICR mouse, 5 mg/mL solution at 10 mL/kg, plasma. On the procedure:
As the administration solution for mice of the compounds prepared in the above
Examples, the compound of Example 55 of International Publication No. WO 2010/030785 and the compound of Example 4 of International Publication No. WO 2013/048214, 20% hydroxypropyl-β-cyclodextrin solution (99.75%) and 2N HCl (0.25%) were added sequentially to make 5 mg/mL. Provided that in the case of the compound of Example 10, 99.5% of 20% hydroxypropyl-β-cyclodextrin solution and 0.5% of 2N HCl […] were added.
The weight of each ICR mouse was properly 20-30 g. Dosage of the compound of the present invention was 10 mL/kg, and administered orally using Zonde. Blood collection was performed at 0.5, 1, 2, 4, 7 and 24 hours by orbital venous blood collection using a capillary tube coated with an anticoagulant, and then plasma was isolated using a centrifuge and kept in a freezer.
Plasma collected from animals and standard concentration material were pre-treated using solid-phase extraction, and concentration of the compound of the invention was determined using a liquid chromatography mass spectrometer (Agilent HPLC, API-4000 Qtrap). According to the resulting concentration value, the pharmacokinetics parameter was found using WinNonlin (Version 7.0) and half-life (t1/2), maximum blood concentration (Cmax) and area under the curve (AUCall) are represented in Table 2.
The term AUC denotes concentration integrated over time. A low value points to less exposure. Broadly, the Cmax is the highest concentration seen after dosing. The half-life is the time needed for the level to fall by half in the phase considered. Lower therefore signals fast loss. Regarding `CN1CCN(C2=Nc3ncc(Br)cc3N3CC(=O)N=C23)CC1` [Example 1, 8-bromo-4-(4-methylpiperazin-1-yl)imidazo[1,2-a]pyrido[2,3-e]pyrazin-2(1H)-one], the exposure (AUC) is 8650 ng·h/mL, the highest level (Cmax) was 2280 ng/mL and the half-life was 3.81 h.

For the molecule `CN1CCN(C2=Nc3ccc([N+](=O)[O-])cc3N3CC(=O)N=C23)CC1` [Example 10, 4-(4-methylpiperazin-1-yl)-8-nitroimidazo[1,2-a]quinoxalin-2(1H)-one], the AUC was 920 ng·h/mL, the peak level (Cmax) was 360 ng/mL and the half-life is 2.04 h.
